Source: ChEMBL document CHEMBL5649169 (ChemMedChem, 2018)

Key:
[1] = target: Pyruvate kinase PKM (Homo sapiens) (UniProt P14618); note: assay method not described here
[2] = target: ADP-ribosylation factor-like protein 1 (Homo sapiens) (UniProt P40616); note: assay method not described here
[3] = target: RAC-alpha serine/threonine-protein kinase (Homo sapiens) (UniProt P31749); note: assay method not described here
[4] = target: ATP synthase F(1) complex subunit alpha, mitochondrial (Homo sapiens) (UniProt P25705); note: assay method not described here
[5] = target: Synaptosomal-associated protein 23 (Homo sapiens) (UniProt O00161); note: assay method not described here
[6] = target: FACT complex subunit SPT16 (Homo sapiens) (UniProt Q9Y5B9); note: assay method not described here
[7] = target: Delta(14)-sterol reductase LBR (Homo sapiens) (UniProt Q14739); note: assay method not described here
[8] = target: Tripeptidyl-peptidase 2 (Homo sapiens) (UniProt P29144); note: assay method not described here
[9] = target: Ubiquitin-associated protein 2-like (Homo sapiens) (UniProt Q14157); note: assay method not described here
[10] = target: Transcriptional regulator protein Pur-beta (Homo sapiens) (UniProt Q96QR8); note: assay method not described here
[11] = target: Transmembrane protein 33 (Homo sapiens) (UniProt P57088); note: assay method not described here
[12] = target: Clathrin light chain A (Homo sapiens) (UniProt P09496); note: assay method not described here
[13] = target: 14-3-3 protein gamma (Homo sapiens) (UniProt P61981); note: assay method not described here
Fascin (Homo sapiens) = Fascin (Homo sapiens) (UniProt Q16658); note: assay method not described here
[14] = target: Hepatoma-derived growth factor (Homo sapiens) (UniProt P51858); note: assay method not described here
[15] = target: Antigen peptide transporter 2 (Homo sapiens) (UniProt Q03519); note: assay method not described here
[16] = target: Stress-70 protein, mitochondrial (Homo sapiens) (UniProt P38646); note: assay method not described here
[17] = target: Protein mono-ADP-ribosyltransferase PARP16 (Homo sapiens) (UniProt Q8N5Y8); note: assay method not described here
[18] = target: Aurora kinase A (Homo sapiens) (UniProt O14965); note: assay method not described here
[19] = target: Small ribosomal subunit protein uS13 (Homo sapiens) (UniProt P62269); note: assay method not described here
[20] = target: Prolyl 4-hydroxylase subunit alpha-1 (Homo sapiens) (UniProt P13674); note: assay method not described here
[21] = target: Mitochondrial import inner membrane translocase subunit TIM44 (Homo sapiens) (UniProt O43615); note: assay method not described here
[22] = target: Large ribosomal subunit protein P1 (Homo sapiens) (UniProt P05386); note: assay method not described here
[23] = target: Coatomer subunit gamma-1 (Homo sapiens) (UniProt Q9Y678); note: assay method not described here
[24] = target: Large ribosomal subunit protein uL3 (Homo sapiens) (UniProt P39023); note: assay method not described here
[25] = target: Small nuclear ribonucleoprotein Sm D2 (Homo sapiens) (UniProt P62316); note: assay method not described here
[26] = target: Ethanolaminephosphotransferase 1 (Homo sapiens) (UniProt Q9C0D9); note: assay method not described here
[27] = target: Heterogeneous nuclear ribonucleoprotein H (Homo sapiens) (UniProt P31943); note: assay method not described here
[28] = target: Small ribosomal subunit protein uS12 (Homo sapiens) (UniProt P62266); note: assay method not described here
[29] = target: Aminoacyl tRNA synthase complex-interacting multifunctional protein 2 (Homo sapiens) (UniProt Q13155); note: assay method not described here
[30] = target: GPI-anchor transamidase component GPAA1 (Homo sapiens) (UniProt O43292); note: assay method not described here
[31] = target: Serine/threonine-protein kinase ATR (Homo sapiens) (UniProt Q13535); note: assay method not described here
[32] = target: Large ribosomal subunit protein eL22 (Homo sapiens) (UniProt P35268); note: assay method not described here
[33] = target: Cilia- and flagella-associated protein 410 (Homo sapiens) (UniProt O43822); note: assay method not described here
Ephrin type-A receptor 6 = Ephrin type-A receptor 6 (Homo sapiens, UniProt Q9UF33); assay: Inhibition of Nano Luc-fused full length C-terminal EPHA6 (unknown origin) expressed in HEK293T cells using NanoGlo as substrate incubated for 2 hrs in presence of tracer by NanoBRET assay; assay type: cell-based
[34] = target: Annexin A7 (Homo sapiens) (UniProt P20073); note: assay method not described here
[35] = target: L-lactate dehydrogenase B chain (Homo sapiens) (UniProt P07195); note: assay method not described here
[36] = target: ATP-dependent 6-phosphofructokinase, liver type (Homo sapiens) (UniProt P17858); note: assay method not described here
[37] = target: Small ribosomal subunit protein uS14 (Homo sapiens) (UniProt P62273); note: assay method not described here
[38] = target: Cell division cycle protein 23 homolog (Homo sapiens) (UniProt Q9UJX2); note: assay method not described here
[39] = target: Protein phosphatase 1G (Homo sapiens) (UniProt O15355); note: assay method not described here
[40] = target: T-complex protein 1 subunit theta (Homo sapiens) (UniProt P50990); note: assay method not described here
[41] = target: Protein kinase C theta type (Homo sapiens) (UniProt Q04759); note: assay method not described here
Ephrin type-A receptor 3 = Ephrin type-A receptor 3 (Homo sapiens, UniProt P29320); assay: Inhibition of Nano Luc-fused full length C-terminal EPHA3 (unknown origin) expressed in HEK293T cells using NanoGlo as substrate incubated for 2 hrs in presence of tracer by NanoBRET assay; assay type: cell-based
Throughout, for ED50: assay method not described here.

Sequence of Ethanolaminephosphotransferase 1 (Homo sapiens) (Q9C0D9 whole entry): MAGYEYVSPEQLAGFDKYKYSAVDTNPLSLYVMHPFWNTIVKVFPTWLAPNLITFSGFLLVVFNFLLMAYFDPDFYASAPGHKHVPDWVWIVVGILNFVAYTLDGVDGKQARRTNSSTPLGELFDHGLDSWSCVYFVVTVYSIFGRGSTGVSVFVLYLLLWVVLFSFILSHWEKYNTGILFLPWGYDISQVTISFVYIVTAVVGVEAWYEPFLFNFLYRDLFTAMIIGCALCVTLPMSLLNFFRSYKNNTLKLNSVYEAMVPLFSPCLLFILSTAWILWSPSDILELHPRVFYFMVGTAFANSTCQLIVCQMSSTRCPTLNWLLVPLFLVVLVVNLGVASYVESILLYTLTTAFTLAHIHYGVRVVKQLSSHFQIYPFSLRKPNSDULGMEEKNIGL
Sequence of Protein phosphatase 1G (Homo sapiens) (O15355 whole entry): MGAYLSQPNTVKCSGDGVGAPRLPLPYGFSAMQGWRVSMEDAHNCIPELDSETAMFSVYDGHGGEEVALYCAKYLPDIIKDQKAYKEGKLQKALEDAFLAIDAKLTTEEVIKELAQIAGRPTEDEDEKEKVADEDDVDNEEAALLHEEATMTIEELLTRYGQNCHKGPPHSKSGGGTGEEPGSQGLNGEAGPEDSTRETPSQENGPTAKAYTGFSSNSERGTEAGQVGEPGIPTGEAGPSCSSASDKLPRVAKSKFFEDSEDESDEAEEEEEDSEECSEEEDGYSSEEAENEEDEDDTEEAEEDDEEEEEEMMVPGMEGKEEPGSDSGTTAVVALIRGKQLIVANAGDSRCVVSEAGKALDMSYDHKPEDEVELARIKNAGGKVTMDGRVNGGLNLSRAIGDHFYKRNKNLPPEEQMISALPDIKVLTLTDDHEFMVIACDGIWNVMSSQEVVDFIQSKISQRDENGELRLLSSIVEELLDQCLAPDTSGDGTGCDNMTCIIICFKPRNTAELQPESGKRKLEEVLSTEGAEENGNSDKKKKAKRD
Sequence of Transcriptional regulator protein Pur-beta (Homo sapiens) (Q96QR8 whole entry): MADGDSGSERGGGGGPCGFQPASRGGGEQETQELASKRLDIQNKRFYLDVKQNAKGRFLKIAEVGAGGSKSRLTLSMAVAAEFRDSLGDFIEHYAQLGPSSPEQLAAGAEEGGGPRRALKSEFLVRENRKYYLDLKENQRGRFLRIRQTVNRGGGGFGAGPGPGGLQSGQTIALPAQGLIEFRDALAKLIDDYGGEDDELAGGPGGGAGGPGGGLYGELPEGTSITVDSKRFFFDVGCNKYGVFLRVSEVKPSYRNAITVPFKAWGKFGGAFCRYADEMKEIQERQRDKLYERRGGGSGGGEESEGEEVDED
Sequence of Stress-70 protein, mitochondrial (Homo sapiens) (P38646 whole entry): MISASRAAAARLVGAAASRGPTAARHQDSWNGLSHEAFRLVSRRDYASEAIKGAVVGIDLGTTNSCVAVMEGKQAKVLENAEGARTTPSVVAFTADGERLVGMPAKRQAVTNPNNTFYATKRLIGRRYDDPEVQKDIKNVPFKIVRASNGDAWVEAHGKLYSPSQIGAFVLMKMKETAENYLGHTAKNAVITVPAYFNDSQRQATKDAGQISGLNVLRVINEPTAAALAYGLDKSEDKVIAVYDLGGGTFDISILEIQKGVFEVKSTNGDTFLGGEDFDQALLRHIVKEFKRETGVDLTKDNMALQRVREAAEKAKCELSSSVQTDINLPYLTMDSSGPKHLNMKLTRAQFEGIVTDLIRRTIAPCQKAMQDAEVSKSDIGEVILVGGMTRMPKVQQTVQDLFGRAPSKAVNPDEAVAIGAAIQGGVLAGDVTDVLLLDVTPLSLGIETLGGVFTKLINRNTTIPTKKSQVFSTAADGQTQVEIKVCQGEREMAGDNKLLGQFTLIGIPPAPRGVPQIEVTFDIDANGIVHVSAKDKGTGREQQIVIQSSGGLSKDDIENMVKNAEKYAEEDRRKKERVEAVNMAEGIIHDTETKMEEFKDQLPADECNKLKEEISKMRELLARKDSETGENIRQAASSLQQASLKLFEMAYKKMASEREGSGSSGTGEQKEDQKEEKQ
Sequence of ATP-dependent 6-phosphofructokinase, liver type (Homo sapiens) (P17858 whole entry): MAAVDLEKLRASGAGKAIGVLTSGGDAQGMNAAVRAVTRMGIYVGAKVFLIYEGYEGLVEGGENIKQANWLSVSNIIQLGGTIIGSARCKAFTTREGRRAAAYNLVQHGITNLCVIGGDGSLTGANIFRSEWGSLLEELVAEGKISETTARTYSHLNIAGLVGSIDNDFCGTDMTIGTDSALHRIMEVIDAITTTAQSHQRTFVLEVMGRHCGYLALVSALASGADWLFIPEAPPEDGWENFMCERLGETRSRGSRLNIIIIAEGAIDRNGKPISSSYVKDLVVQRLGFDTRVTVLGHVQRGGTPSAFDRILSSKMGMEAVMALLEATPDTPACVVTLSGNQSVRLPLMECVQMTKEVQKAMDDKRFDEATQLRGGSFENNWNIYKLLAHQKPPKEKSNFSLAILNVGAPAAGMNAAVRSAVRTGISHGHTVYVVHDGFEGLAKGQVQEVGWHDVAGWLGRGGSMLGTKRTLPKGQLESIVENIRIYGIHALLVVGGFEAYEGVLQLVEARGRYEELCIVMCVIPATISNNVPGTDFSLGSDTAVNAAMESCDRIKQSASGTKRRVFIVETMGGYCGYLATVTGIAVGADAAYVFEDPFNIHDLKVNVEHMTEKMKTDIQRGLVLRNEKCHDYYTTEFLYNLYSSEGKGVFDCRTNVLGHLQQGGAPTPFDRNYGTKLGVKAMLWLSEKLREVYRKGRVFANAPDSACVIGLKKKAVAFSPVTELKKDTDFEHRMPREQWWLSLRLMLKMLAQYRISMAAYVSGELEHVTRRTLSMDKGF
Sequence of ATP synthase F(1) complex subunit alpha, mitochondrial (Homo sapiens) (P25705 whole entry, one chain of several): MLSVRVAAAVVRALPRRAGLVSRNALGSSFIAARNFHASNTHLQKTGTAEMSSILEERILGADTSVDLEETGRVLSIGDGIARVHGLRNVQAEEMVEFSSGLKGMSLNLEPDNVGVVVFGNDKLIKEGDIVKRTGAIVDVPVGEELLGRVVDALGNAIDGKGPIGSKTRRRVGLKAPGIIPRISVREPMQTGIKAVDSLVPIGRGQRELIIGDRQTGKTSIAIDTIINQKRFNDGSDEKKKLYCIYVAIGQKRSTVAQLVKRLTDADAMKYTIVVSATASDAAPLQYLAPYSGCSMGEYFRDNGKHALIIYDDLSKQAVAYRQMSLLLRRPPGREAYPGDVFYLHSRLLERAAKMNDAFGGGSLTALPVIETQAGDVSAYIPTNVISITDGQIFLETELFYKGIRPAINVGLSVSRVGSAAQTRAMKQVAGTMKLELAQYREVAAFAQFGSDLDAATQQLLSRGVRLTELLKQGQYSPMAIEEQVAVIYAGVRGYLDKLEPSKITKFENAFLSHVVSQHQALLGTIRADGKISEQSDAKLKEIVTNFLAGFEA
Sequence of RAC-alpha serine/threonine-protein kinase (Homo sapiens) (P31749 whole entry): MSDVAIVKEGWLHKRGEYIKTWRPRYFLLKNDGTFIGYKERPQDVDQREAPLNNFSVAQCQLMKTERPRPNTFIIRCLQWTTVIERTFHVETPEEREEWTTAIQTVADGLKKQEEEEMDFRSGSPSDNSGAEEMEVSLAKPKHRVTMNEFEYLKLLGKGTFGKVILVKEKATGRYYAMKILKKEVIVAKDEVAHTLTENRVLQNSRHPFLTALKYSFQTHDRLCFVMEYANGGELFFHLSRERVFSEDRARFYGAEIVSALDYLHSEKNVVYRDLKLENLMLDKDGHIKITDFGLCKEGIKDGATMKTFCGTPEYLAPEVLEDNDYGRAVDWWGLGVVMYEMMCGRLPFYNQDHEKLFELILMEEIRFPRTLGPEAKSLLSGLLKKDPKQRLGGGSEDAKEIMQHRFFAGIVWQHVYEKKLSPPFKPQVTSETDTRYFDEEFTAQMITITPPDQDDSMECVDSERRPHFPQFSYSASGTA
Sequence of Coatomer subunit gamma-1 (Homo sapiens) (Q9Y678 whole entry): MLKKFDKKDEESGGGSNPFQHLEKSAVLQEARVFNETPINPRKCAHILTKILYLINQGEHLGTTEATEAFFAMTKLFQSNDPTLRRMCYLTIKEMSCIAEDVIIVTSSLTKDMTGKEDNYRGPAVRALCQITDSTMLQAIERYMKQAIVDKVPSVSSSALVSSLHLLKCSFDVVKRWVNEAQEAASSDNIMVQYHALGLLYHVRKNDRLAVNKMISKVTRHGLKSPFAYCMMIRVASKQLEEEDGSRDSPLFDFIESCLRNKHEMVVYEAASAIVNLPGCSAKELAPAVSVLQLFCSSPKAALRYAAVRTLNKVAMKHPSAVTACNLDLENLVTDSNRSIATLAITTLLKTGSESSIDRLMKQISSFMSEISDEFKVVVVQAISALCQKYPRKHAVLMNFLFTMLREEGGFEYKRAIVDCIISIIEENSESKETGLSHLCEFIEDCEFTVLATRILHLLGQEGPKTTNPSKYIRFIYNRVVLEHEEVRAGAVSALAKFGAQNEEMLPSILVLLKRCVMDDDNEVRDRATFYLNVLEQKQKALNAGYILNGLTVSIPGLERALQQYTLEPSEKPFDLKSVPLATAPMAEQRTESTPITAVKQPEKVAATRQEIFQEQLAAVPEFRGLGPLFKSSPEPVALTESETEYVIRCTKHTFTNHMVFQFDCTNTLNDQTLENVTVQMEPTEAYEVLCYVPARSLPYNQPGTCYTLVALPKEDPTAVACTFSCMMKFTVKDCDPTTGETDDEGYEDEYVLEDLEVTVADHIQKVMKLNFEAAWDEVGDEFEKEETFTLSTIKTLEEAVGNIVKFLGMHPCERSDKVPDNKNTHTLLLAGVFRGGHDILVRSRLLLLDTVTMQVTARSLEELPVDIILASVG
Sequence of ADP-ribosylation factor-like protein 1 (Homo sapiens) (P40616 whole entry): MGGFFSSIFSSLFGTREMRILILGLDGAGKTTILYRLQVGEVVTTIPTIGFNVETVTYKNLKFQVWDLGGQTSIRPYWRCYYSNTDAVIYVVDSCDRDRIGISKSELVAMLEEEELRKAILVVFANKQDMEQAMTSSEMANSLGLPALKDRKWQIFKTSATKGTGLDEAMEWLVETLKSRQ
Sequence of Large ribosomal subunit protein P1 (Homo sapiens) (P05386 whole entry): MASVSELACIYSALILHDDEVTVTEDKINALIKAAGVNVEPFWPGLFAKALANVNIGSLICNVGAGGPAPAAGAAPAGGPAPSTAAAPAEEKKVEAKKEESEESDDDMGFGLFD

Cc1ccc(C(=O)Nc2cccc(C(F)(F)F)c2)cc1Nc1nc(-c2cccnc2)nc2c1cnn2C
ED50 [1]: 5.83 µM | ED50 [2]: 0.000716 µM | ED50 [3]: 33.2 µM | ED50 [4]: 1.48 µM | ED50 [5]: 11.2 µM | ED50 [6]: 0.0046 µM | ED50 [7]: 5.78 µM | ED50 [8]: 53.8 µM | ED50 [9]: 13.3 µM | ED50 [10]: 0.00796 µM | ED50 [11]: 4.89 µM | ED50 [12]: 0.55 µM | ED50 [13]: 0.00449 µM | ED50 (Fascin (Homo sapiens)): 0.0186 µM | ED50 [14]: 0.0049 µM | ED50 [15]: 10.3 µM | ED50 [16]: 0.0314 µM | ED50 [17]: 0.0016 µM | ED50 [18]: 6.29 µM | ED50 [19]: 2.79 µM | ED50 [20]: 0.511 µM | ED50 [21]: 0.445 µM | ED50 [22]: 0.0125 µM | ED50 [23]: 0.164 µM | ED50 [24]: 2.64 µM | ED50 [25]: 42.7 µM | ED50 [26]: 1.54 µM | ED50 [27]: 5.86 µM | ED50 [28]: 0.00873 µM | ED50 [29]: 0.00534 µM | ED50 [30]: 56.5 µM | ED50 [31]: 4.47 µM | ED50 [32]: 784 µM | ED50 [33]: 46.8 µM | IC50 (Ephrin type-A receptor 6): 0.263 µM | ED50 [34]: 21.9 µM | ED50 (Homo sapiens): 3.42 µM | ED50 [35]: 0.00831 µM | ED50 [36]: 111 µM | ED50 [37]: 0.108 µM | ED50 [38]: 0.0535 µM | ED50 [39]: 0.442 µM | ED50 [40]: 0.0186 µM | ED50 [41]: 0.00259 µM | IC50 (Ephrin type-A receptor 3): 0.0003 µM

Cc1ccc(C(=O)Nc2cccc(C(F)(F)F)c2)cc1Nc1nc(-c2cccnc2)nc2nn(C)cc12
ED50 [1]: 0.174 µM | ED50 [2]: 2.85 µM | ED50 [3]: 0.216 µM | ED50 [4]: 1.74 µM | ED50 [5]: 0.416 µM | ED50 [6]: 0.149 µM | ED50 [7]: 0.0816 µM | ED50 [8]: 0.487 µM | ED50 [9]: 14.3 µM | ED50 [10]: 0.0202 µM | ED50 [11]: 0.0053 µM | ED50 [12]: 0.0659 µM | ED50 [13]: 0.68 µM | ED50 (Fascin (Homo sapiens)): 0.348 µM | ED50 [14]: 12.4 µM | ED50 [15]: 0.0871 µM | ED50 [16]: 0.0308 µM | ED50 [17]: 22200 µM | ED50 [18]: 9.32 µM | ED50 [19]: 0.00691 µM | ED50 [20]: 0.000132 µM | ED50 [21]: 0.31 µM | ED50 [22]: 16600 µM | ED50 [23]: 2.75 µM | ED50 [24]: 10.4 µM | ED50 [25]: 9770 µM | ED50 [26]: 0.809 µM | ED50 [27]: 13.2 µM | ED50 [28]: 0.000624 µM | ED50 [29]: 0.0495 µM | ED50 [30]: 0.841 µM | ED50 [31]: 0.0106 µM | ED50 [32]: 0.00758 µM | ED50 [33]: 0.574 µM | IC50 (Ephrin type-A receptor 6): > 50 µM | ED50 [34]: 0.0697 µM | ED50 (Homo sapiens): 0.545 µM | ED50 [35]: 9.99 µM | ED50 [36]: 0.0338 µM | ED50 [37]: 0.00933 µM | ED50 [38]: 2.59 µM | ED50 [39]: 35 µM | ED50 [40]: 43.3 µM | ED50 [41]: 2.63 µM | IC50 (Ephrin type-A receptor 3): 0.05 µM
